Assay results: patent US8546072B2, “Substrate for assaying β-glucan and/or endotoxin and assay method” (Wako Pure Chemical Industries, Ltd., priority 2008, dated 2013)
Primed or numbered codes have the meaning given here. The star is where a group is joined. NH(CH2)4NH′ = not defined here; Boc = CC(C)(C)OC(=O)*

System: clotting enzyme
Assay: Study on the reactivity of clotting enzyme by substrate (β-glucan-activated LAL fraction, HPLC of released fluorescent compound)
Assay type: biochemical, Limulus polyphemus
Details: β-glucan-specific LAL fraction, 25 ng/mL standard β-glucan (lentinan), 37° C., FIG. 3
Protocol: b) Aqueous solution of the peptide derivative of the present invention (hereinafter, sometimes abbreviated as substrate of the present invention): Boc-Thr-Gly-Arg-Gly-NH(CH2)4NH-Hilyte647 was dissolved in β-glucan-free water, and prepared to give 640 μM.
c) Aqueous substrate solution of known analogous substrate: Boc-Thr-Gly-Arg-NH-(CH2)4—NH-HiLyte647 obtained in Reference Example 1 was dissolved in β-glucan-free water, and prepared to give 640 μM.
d) Standard β-glucan solution: Intravenous lentinan preparation “Astellas” (Astellas Pharma Inc.) (1 mg) was dissolved in 0.1 M aqueous sodium hydroxide to give 50 μg/mL, and the solution was then diluted appropriately with β-glucan-free water, and used as the standard β-glucan solution. e) β-glucan specific LAL fraction solution: A fraction in which β-glucan-dependent clotting enzyme activity was detected was collected from the blood cell of American horseshoe crab (Limulus polyphemus) according to LAL extraction method described in pages 268 to 269 of “T. Kitagawa et al., Journal of Chromatography, 567 (1991) 267-273” and fractionation method by ion exchange chromatography, LAL fraction (a fraction corresponding to the fraction Nos. 7 to 20 in the above described literature) in 20 mM Tris-HCl buffer (pH 8.0) was obtained. […]

Substance	time in which the substrate was cleaved by the clotting enzyme (substrate 160 μM in reagent for reaction 1)	decomposition rate (area of released fluorescent compound versus total area) (after 2 hours of reaction) [%]
Boc-Thr-Gly-Arg-Gly-NH(CH2)4NH-Hilyte647 (Boc-TGRG-{NH(CH2)4NH′-HiLyte Fluor 647}) [tetrapeptide substrate with butanediamine spacer and HiLyte Fluor 647 dye]	about 20 minutes	
Boc-Thr-Gly-Arg-NH(CH2)4NH-Hilyte647 [Reference Example 1]		≤ 20
